In patent US11643421B2, “Process for the preparation of tricyclic PI3K inhibitor compounds and methods for using the same for the treatment of cancer” (priority 2015, dated 2023):
Where two headings read alike, the source gives them in different places.

What was measured:
MST2 = MST2 (Homo sapiens, UniProt Q13188); assay: biochemical; conditions: read-out: % inhib
[1] = In vivo pharmacokinetics IV and PO; design: species or system beagle dogs; conditions: Dog
Description: (§1) The hepatocyte stability of compound IIIat was evaluated across preclinical species. Certain in vivo pharmacokinetic parameters were also evaluated. […] Male Sprague-Dawley rats, female CD-1 mice, male cynomolgus monkeys and beagle dogs were dosed intravenously with 1 mg/kg of compound IIIat prepared in 60% PEG400/10% Ethanol. Compound IIIat was administered orally (PO) at the indicated dose in 0.5% methylcellulose with 0.2% Tween 80 (MCT).

mouse P-gp (mdr1a) = mouse P-gp (mdr1a) (Mus musculus, UniProt P21447); assay: Transport assay in Mdr1a-LLC-PK1 cell monolayers; format: in vitro ADME; conditions: Mdr1a-LLC-PK, 2-hour incubation
mouse P-gp (mdr1a), sequence (P21447 whole entry): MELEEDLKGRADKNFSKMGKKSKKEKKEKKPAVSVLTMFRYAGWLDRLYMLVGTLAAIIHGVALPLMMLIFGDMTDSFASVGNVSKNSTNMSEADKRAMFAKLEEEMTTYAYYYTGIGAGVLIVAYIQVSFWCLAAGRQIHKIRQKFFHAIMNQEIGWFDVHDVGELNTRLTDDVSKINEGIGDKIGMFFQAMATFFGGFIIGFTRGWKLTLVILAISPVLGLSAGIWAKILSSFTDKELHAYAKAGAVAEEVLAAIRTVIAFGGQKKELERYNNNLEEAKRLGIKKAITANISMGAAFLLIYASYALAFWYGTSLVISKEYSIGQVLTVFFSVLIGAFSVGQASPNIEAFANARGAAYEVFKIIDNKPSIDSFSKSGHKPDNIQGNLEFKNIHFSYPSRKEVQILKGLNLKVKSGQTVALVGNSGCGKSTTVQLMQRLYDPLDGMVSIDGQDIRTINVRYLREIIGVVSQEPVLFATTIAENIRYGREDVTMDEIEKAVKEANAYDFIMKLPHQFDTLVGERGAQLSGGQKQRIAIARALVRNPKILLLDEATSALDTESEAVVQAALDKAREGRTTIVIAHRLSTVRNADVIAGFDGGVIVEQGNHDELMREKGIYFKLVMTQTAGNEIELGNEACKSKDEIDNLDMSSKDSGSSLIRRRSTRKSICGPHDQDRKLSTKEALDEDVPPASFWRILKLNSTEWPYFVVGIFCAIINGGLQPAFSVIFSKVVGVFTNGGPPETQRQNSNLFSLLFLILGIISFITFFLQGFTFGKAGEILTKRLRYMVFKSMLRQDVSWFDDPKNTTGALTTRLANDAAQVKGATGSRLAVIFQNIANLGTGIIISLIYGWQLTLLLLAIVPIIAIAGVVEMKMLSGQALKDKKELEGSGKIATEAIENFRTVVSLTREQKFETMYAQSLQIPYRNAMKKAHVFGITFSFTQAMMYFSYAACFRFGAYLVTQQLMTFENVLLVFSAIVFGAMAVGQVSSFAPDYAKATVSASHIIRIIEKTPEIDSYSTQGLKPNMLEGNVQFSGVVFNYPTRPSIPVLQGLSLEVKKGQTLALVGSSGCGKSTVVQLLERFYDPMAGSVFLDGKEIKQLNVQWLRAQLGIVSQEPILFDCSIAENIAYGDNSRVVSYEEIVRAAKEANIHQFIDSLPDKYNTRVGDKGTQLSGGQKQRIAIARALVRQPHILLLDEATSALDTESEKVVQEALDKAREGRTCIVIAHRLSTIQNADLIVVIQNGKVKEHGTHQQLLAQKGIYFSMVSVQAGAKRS
Description: MDR1-MDCKI cells were licensed from the NCI (National Cancer Institute, Bethesda, Md.) and Bcrp1-MDCKII, BCRP-MDCKII and Mdr1a-LLC-PK1 cells were obtained from the Netherlands Cancer Institute (Amsterdam. The Netherlands). […] The compound was dissolved in transport buffer consisting of Hank's balanced salt solution (HBSS) with 10 mM HEPES (Invitrogen Corporation, Grand Island, N.Y.). Lucifer Yellow (Sigma-Aldrich, St. Louis, Mo.) was used as the paracellular and monolayer integrity marker. […] The efflux ratio (ER) was calculated (Papp, B-A/Papp, A-B).

CHK1 = CHK1 (Homo sapiens, UniProt O14757); assay: biochemical; conditions: read-out: % inhib
CHK1, sequence (O14757 whole entry, species assumed): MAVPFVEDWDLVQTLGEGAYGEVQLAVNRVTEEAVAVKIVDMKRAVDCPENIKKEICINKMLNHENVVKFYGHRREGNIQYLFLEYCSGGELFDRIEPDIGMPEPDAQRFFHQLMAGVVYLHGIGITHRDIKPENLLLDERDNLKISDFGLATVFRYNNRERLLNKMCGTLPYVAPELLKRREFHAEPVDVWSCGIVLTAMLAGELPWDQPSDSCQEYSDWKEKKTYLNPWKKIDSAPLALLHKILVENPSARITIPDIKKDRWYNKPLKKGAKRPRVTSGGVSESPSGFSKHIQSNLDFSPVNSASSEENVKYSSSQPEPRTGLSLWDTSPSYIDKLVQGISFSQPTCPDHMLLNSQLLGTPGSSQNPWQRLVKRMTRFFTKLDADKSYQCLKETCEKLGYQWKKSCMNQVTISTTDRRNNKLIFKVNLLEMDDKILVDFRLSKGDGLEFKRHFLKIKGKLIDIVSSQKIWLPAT

TBK1 = TBK1 (Homo sapiens, UniProt Q9UHD2); assay: biochemical; conditions: read-out: % inhib
TBK1, sequence (Q9UHD2 whole entry, species assumed): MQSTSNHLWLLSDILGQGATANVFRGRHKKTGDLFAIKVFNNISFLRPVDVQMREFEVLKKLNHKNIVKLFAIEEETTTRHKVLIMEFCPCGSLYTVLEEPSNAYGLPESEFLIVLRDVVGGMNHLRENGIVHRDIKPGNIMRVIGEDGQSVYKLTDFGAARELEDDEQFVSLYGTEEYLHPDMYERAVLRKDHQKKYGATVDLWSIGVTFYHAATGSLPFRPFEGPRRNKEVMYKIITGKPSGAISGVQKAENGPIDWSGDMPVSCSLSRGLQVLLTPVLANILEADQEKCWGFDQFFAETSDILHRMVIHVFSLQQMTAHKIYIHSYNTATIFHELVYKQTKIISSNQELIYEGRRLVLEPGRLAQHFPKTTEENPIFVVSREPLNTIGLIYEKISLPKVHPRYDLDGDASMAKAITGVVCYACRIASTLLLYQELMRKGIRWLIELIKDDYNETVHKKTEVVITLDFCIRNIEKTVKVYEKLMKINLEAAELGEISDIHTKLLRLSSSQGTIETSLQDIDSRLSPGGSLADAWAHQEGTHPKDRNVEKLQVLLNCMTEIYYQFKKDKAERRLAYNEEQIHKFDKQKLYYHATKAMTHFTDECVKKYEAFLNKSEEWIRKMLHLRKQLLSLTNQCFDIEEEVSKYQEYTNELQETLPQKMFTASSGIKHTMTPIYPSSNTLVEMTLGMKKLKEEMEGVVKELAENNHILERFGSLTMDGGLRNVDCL

[2] = Phase I study, brain tumor and brain tissue concentration; format: in vivo, human; conditions: concentration from brain tumor tissue, patients
Flt1 = Flt1 (Homo sapiens, UniProt P17948); assay: biochemical; conditions: read-out: % inhib
Flt1, sequence (P17948 27-1338): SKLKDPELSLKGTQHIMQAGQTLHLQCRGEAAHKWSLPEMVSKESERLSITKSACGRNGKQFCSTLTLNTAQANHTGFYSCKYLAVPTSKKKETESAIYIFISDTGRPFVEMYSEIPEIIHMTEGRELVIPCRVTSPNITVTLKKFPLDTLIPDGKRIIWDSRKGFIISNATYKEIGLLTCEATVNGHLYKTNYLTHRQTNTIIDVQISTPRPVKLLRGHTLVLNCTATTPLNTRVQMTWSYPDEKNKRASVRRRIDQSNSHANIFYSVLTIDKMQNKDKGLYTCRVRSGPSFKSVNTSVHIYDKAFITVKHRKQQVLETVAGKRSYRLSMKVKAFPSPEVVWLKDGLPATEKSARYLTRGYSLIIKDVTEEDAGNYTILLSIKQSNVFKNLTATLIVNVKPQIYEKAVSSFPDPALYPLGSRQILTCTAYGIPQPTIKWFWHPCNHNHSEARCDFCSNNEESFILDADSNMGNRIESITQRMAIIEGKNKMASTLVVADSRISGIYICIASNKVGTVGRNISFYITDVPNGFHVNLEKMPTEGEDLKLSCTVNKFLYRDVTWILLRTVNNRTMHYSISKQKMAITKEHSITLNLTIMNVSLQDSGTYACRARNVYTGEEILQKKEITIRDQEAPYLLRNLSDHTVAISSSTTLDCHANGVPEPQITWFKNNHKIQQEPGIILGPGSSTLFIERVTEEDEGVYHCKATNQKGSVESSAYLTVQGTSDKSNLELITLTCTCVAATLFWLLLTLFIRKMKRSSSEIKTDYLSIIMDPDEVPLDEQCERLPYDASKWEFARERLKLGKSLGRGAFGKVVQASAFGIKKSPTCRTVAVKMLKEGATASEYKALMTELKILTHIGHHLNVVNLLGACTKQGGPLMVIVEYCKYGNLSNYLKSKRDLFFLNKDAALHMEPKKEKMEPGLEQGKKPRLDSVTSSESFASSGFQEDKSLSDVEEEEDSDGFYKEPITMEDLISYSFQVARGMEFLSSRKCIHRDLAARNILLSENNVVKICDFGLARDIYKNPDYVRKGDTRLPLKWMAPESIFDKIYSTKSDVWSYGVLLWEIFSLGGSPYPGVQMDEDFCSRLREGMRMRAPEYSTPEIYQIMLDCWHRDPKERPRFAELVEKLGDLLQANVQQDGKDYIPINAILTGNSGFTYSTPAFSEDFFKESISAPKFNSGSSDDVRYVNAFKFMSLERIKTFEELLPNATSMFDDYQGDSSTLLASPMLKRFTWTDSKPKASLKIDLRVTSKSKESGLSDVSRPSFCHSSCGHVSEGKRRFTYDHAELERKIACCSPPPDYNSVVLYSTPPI

p4EBP1 = assay: PI3K pathway modulation in GS2 tumors, western blot; format: in vivo, mice; conditions: 15 mg/kg PO daily 4 weeks
GSK3_beta = GSK3_beta (Homo sapiens, UniProt P49841); assay: biochemical; conditions: read-out: % inhib
EphB3 = EphB3 (Homo sapiens, UniProt P54753); assay: biochemical; conditions: read-out: % inhib
PhK_gamma1 = PhK_gamma1 (Homo sapiens, UniProt Q16816); assay: biochemical; conditions: read-out: % inhib
PhK_gamma1, sequence (Q16816 whole entry): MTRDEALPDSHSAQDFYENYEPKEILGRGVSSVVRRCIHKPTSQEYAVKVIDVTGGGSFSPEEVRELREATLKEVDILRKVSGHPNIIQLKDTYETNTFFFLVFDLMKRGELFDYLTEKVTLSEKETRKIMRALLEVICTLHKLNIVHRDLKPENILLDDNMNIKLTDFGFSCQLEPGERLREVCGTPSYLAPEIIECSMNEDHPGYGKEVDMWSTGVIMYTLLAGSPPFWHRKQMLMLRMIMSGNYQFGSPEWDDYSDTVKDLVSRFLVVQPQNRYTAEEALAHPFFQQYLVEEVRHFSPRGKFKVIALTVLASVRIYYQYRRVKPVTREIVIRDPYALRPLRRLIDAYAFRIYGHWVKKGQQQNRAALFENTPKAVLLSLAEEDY

[3] = Solubility in mono- and ternary-solvent systems; format: physicochemical; conditions: 50° C.
[4] = In vivo pharmacokinetics IV and PO; design: species or system male cynomolgus monkeys; conditions: Cyno
Description: as §1

CK1_gamma3 = CK1_gamma3 (Homo sapiens, UniProt Q9Y6M4); assay: biochemical; conditions: read-out: % inhib
GS2 intracranial tumors = assay: Efficacy in GS2 intracranial model; format: in vivo, mice; conditions: 15 mg/kg PO daily for 4 weeks, MRI, p<0.01
Source text: These U87 and GS2 models are PTEN-deficient, with the GS2 cell line presenting a copy number loss at the PTEN locus (Gunther H S, et al.) with no detectable PTEN protein by western blot (Carlson […], Schroeder […]., “Establishment, maintenance and in vitro and in vivo applications of primary human glioblastoma multiforme (GBM) xenograft models for translational biology studies and drug discovery”, Curr Protoc Pharmacol. 2011; Chapter 14: Unit 14 16). The identity of the two cell lines was confirmed by STR profiling (DNA Diagnostics Center) using cells within 5 passages of those utilized for in vivo studies. […] The differences between treatment groups were evaluated using Student's t test in Prism (Prism 5, GraphPad). […] Body temperature was continuously monitored using a rectal probe and was maintained at 37° C. by a heated-air flow system regulated by in-house LabVIEW controller software. A T2-weighted fast spin echo, multi-slice (FSEMS) sequence was used to detect lesions by MRI. 12-20 axial 0.5-0.8 mm-thick slices were acquired with a 20×20 mm field of view (FOV), and 128×128 matrix, zero-filled to 256×256 mages. TR=3500-4000 ms, TE=9-10 ms, ETL=8, k-zero=4, NEX=8. Tumor volumes were calculated from the T2-weighted FSEMS images using an intensity threshold based region growing tool in MRVision software. […]

MST2, sequence (Q13188 whole entry, species assumed): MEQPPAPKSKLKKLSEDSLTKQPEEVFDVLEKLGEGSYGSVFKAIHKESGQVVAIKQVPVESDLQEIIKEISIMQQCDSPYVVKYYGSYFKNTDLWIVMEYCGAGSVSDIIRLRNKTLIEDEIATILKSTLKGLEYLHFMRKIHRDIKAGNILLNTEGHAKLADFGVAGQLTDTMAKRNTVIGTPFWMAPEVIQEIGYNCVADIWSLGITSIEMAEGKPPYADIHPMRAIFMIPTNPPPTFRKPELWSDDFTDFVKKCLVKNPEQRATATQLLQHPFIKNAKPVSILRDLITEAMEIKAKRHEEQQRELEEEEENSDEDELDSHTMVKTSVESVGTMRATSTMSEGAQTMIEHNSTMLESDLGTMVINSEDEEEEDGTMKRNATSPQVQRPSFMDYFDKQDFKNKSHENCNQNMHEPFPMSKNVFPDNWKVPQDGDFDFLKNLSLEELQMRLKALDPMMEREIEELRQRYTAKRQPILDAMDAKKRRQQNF

CC1(C)OCCn2c1nc1c(N3CCOCC3)nc(-c3cnc(N)nc3)nc12 [GDC-0084, 5-(6,6-dimethyl-4-morpholino-8,9-dihydro-6H-[1,4]oxazino[3,4-e]purin-2-yl)pyrimidin-2-amine]
inhibition at 1 µM (MST2): -2%
AUC ([1]; PO 2 mg/kg in MCT): 1.6 μm·h
Cmax ([1]; PO 2 mg/kg in MCT): 0.2 μm
clearance ([1]; beagle, plasma, IV 1 mg/kg, read-out: In vivo Cl): 26 mL/min/kg
Vd ([1]; beagle, plasma, IV 1 mg/kg, read-out: Vss): 3 L/kg
bioavailability ([1]; beagle, plasma, PO 2 mg/kg in MCT): 40%
Papp B→A at 2 h, 5 μM (mouse P-gp (mdr1a)): 19.4 ± 1.3 ×10⁻⁶ cm/s
inhibition at 1 µM (CHK1): 0.6%
inhibition at 1 µM (TBK1): 4%
blood brain barrier crossing and brain distribution [2]: crosses the blood brain barrier and uniformly distributes throughout the brain
inhibition at 1 µM (Flt1): 0.6%
Suppression of p4EBP1 in GS2 tumors (p4EBP1; 2 hours after final administration): 43%
p4EBP1 level in GS2 tumors (p4EBP1; 8 hours post-dose): back to baseline levels
inhibition at 1 µM (GSK3_beta): 1%
inhibition at 1 µM (EphB3): -0.1%
inhibition at 1 µM (PhK_gamma1): 2%
Solubility ([3]; DMF): 0.9 wt. %
Solubility ([3]; DMF/HOAc/H2O 67:24:9 by volume): 0.3 wt. %
Solubility ([3]; EtOH): 0.1 wt. %
Solubility ([3]; EtOH/HOAc/H2O 67:24:9 by volume): 1 wt. %
Solubility ([3]; HOAc): 2.8 wt. %
Solubility ([3]; HOAc/HOAc/H2O 67:24:9 by volume): 2.1 wt. %
Solubility ([3]; MeOH): 0.2 wt. %
Solubility ([3]; MeOH/HOAc/H2O 67:24:9 by volume): 0.4 wt. %
Solubility ([3]; MeTHF): 0.3 wt. %
Solubility ([3]; MeTHF/HOAc/H2O 67:24:9 by volume): 2.7 wt. %
Solubility ([3]; PhMe): 0.1 wt. %
Solubility ([3]; THF): 0.7 wt. %
Solubility ([3]; THF/HOAc/H2O 67:24:9 by volume): 3.7 wt. %
Solubility ([3]; Toluene/HOAc/H2O 67:24:9 by volume): 3.8 wt. %
Solubility ([3]; i-BuOH): 0.1 wt. %
Solubility ([3]; i-BuOHHOAcH2O 67:24:9 by volume): 2.1 wt. %
Solubility ([3]; n-BuOH): 0.1 wt. %
Solubility ([3]; n-BuOH/HOAc/H2O 67:24:9 by volume): 2.4 wt. %
Solubility ([3]; n-PrOH): 0.1 wt. %
Solubility ([3]; n-PrOH/HOAc/H2O 67:24:9 by volume): 1.8 wt. %
AUC ([4]; PO 2 mg/kg in MCT): 0.11 μm·h
Cmax ([4]; PO 2 mg/kg in MCT): 0.03 μm
clearance ([4]; male, cynomolgus monkey, plasma, IV 1 mg/kg, read-out: In vivo Cl): 46 mL/min/kg
Vd ([4]; male, cynomolgus monkey, plasma, IV 1 mg/kg, read-out: Vss): 2.9 L/kg
bioavailability ([4]; male, cynomolgus monkey, plasma, PO 2 mg/kg in MCT): 6%
inhibition at 1 µM (CK1_gamma3): -0.2%
GS2 tumors smaller than control group (GS2 intracranial tumors): ≈ 40%
